The values below come from US10781211B2, “Spirocycle compounds and methods of making and using same” (Lundbeck La Jolla Research Center, Inc., priority 2016, dated 2020).

Common to all, as to format: in vivo
What all share (details): 5 mg/kg oral gavage

The target of one experiment is ABHD6 (Mus musculus (Mouse), UniProt Q8R2Y0). Nature of the experiment: Mouse brain proteomes from inhibitor treated mice (oral gavage, sacrifice 4 h after administration, ABPP analysis), ABHD6. A digest of the protocol: (§1)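 Compounds were given by oral gavage to wild-type C57Bl/6J mice in a vehicle such as PEG400/Ethanol/PBS (7/2/1). Animals were sacrificed 4 h after dosing, and brain proteomes were prepared and analyzed by established ABPP methods. Values are % inhibition at 5 mg/kg.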

In another experiment the target is MAGL (Mus musculus (Mouse), UniProt O35678). Nature of the experiment: Mouse brain proteomes from inhibitor treated mice (oral gavage, sacrifice 4 h after administration, ABPP analysis). As to the method: Preparation of Mouse Brain Proteomes from Inhibitor Treated Mice.
Inhibitors were administered to wild-type C57Bl/6J by oral gavage in a vehicle, e.g. PEG400/Ethanol/PBS (7/2/1). Each animal was sacrificed 4 h following administration and brain proteomes were prepared and analyzed according to previously established methods (See Niphakis, M. J., et al. (2011) ACS Chem. Neurosci. and Long, J. Z., et al. Nat. Chem. Biol. 5:37-44). Data from this assay is shown in Table 2 (% inhibition at 5 mg/kg).

The target in another experiment is FAAH (Mus musculus (Mouse), UniProt O08914). Nature of the experiment: Mouse brain proteomes from inhibitor treated mice (oral gavage, sacrifice 4 h after administration, ABPP analysis), FAAH. A digest of the protocol: as §1
Sequence of FAAH (O08914 whole entry): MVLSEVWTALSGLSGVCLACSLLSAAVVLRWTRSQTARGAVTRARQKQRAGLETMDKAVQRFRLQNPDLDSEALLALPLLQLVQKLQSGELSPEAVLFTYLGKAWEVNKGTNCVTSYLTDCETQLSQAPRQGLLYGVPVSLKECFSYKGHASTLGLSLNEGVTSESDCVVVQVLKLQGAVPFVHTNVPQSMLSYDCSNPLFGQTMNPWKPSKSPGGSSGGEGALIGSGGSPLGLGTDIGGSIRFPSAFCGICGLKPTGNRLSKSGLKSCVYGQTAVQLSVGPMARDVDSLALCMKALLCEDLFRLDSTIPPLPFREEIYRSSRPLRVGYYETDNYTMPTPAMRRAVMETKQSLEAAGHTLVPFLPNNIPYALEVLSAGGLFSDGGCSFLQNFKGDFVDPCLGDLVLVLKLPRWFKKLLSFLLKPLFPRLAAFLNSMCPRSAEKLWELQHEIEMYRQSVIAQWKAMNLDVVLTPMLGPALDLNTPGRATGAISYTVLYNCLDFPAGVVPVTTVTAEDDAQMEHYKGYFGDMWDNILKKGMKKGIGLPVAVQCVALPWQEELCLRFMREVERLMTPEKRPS

Sequence of MAGL (O35678 whole entry): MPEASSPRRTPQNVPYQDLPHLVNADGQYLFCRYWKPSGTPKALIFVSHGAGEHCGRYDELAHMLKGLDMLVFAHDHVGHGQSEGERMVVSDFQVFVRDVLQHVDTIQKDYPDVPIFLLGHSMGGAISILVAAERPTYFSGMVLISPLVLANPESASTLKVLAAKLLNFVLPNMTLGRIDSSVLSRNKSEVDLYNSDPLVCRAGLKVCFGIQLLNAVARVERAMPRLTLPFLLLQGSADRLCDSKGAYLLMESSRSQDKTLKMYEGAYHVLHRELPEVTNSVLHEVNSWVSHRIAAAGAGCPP
Sequence of ABHD6 (Q8R2Y0 whole entry): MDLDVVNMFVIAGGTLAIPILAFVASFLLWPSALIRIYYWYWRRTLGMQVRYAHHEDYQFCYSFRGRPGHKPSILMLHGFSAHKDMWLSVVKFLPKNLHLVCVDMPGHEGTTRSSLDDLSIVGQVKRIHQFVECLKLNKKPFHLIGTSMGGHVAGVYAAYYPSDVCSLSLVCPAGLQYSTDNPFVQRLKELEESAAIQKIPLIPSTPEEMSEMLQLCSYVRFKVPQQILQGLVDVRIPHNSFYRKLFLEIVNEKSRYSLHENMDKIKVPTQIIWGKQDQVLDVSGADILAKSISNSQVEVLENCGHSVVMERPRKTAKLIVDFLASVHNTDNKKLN

In the case of `CCOc1ccc(CN2CCCC23CCN(C(=O)OC(C(F)(F)F)C(F)(F)F)CC3)cc1` [Example 4, 1,1,1,3,3,3-Hexafluoropropan-2-yl 1-(4-ethoxybenzyl)-1,8-diazaspiro[4.5]decane-8-carboxylate], the “ABHD6 % Inh 5 mg/kg (mouse)” value on ABHD6 is recorded as “# (# is < 25%)”. Also, at MAGL, the “MAGL % Inh 5 mg/kg (mouse)” value is “### (### is ≥ 75%)”. Moreover, on FAAH, the “FAAH % Inh 5 mg/kg (mouse)” value is reported as “# (# is < 25%)”.
`COc1cccc(CN2CCCC23CCN(C(=O)OC(C(F)(F)F)C(F)(F)F)CC3)c1Cl` [Example 7, 1,1,1,3,3,3-Hexafluoropropan-2-yl 1-(2-chloro-3-methoxybenzyl)-1,8-diazaspiro[4.5]decane-8-carboxylate]: at ABHD6, the “ABHD6 % Inh 5 mg/kg (mouse)” value was “# (# is < 25%)”. Also, the “MAGL % Inh 5 mg/kg (mouse)” value at MAGL is “### (### is ≥ 75%)”. The “FAAH % Inh 5 mg/kg (mouse)” value at FAAH was “### (### is ≥ 75%)”.
`COc1cc(Cl)ccc1CN1CCCC12CCN(C(=O)OC(C(F)(F)F)C(F)(F)F)CC2` [Example 9, 1,1,1,3,3,3-Hexafluoropropan-2-yl 1-(4-chloro-2-methoxybenzyl)-1,8-diazaspiro[4.5]decane-8-carboxylate]: the “ABHD6 % Inh 5 mg/kg (mouse)” value at ABHD6 was “# (# is < 25%)”. Also, the “MAGL % Inh 5 mg/kg (mouse)” value at MAGL is reported as “### (### is ≥ 75%)”. Moreover, the “FAAH % Inh 5 mg/kg (mouse)” value on FAAH is “# (# is < 25%)”.
`CN(C)C(=O)C1CCN(c2cc(C(F)(F)F)ccc2CN2CCCC23CCN(C(=O)OC(C(F)(F)F)C(F)(F)F)CC3)CC1` [Example 16, 1,1,1,3,3,3-Hexafluoropropan-2-yl 1-(2-(4-(dimethylcarbamoyl)piperidin-1-yl)-4-(trifluoromethyl)benzyl)-1,8-diazaspiro[4.5]decane-8-carboxylate]: at ABHD6, the “ABHD6 % Inh 5 mg/kg (mouse)” value is reported as “# (# is < 25%)”. Further, the “MAGL % Inh 5 mg/kg (mouse)” value at MAGL is on record as “# (# is < 25%)”. The “FAAH % Inh 5 mg/kg (mouse)” value on FAAH was “# (# is < 25%)”.
On to `O=C(OC(C(F)(F)F)C(F)(F)F)N1CCC2(CCN(Cc3ccc(C(F)(F)F)cc3N3CCOCC3)C2)CC1` [Example 22, 1,1,1,3,3,3-Hexafluoropropan-2-yl 2-(2-morpholino-4-(trifluoromethyl)benzyl)-2,8-diazaspiro[4.5]decane-8-carboxylate], for which the “ABHD6 % Inh 5 mg/kg (mouse)” value on ABHD6 is “# (# is < 25%)”. The “MAGL % Inh 5 mg/kg (mouse)” value at MAGL was “### (### is ≥ 75%)”. Besides, the “FAAH % Inh 5 mg/kg (mouse)” value at FAAH is “# (# is < 25%)”.
With `O=C(OC(C(F)(F)F)C(F)(F)F)N1CCC2(CCN(Cc3ccc(Cl)cc3N3CCCCC3)C2)CC1` [Example 24, 1,1,1,3,3,3-Hexafluoropropan-2-yl 2-(4-chloro-2-(piperidin-1-yl)benzyl)-2,8-diazaspiro[4.5]decane-8-carboxylate], the “ABHD6 % Inh 5 mg/kg (mouse)” value at ABHD6 was “# (# is < 25%)”. The “MAGL % Inh 5 mg/kg (mouse)” value at MAGL is reported as “### (### is ≥ 75%)”. On FAAH, the “FAAH % Inh 5 mg/kg (mouse)” value is “# (# is < 25%)”.
Turning to `O=C(OC(C(F)(F)F)C(F)(F)F)N1CCC2(CCCN2Cc2cccc(OCCF)c2)CC1` [Example 27, 1,1,1,3,3,3-Hexafluoropropan-2-yl 1-(3-(2-fluoroethoxy)benzyl)-1,8-diazaspiro[4.5]decane-8-carboxylate], the “ABHD6 % Inh 5 mg/kg (mouse)” value on ABHD6 is “# (# is < 25%)”. Besides, the “MAGL % Inh 5 mg/kg (mouse)” value on MAGL is recorded as “### (### is ≥ 75%)”. The “FAAH % Inh 5 mg/kg (mouse)” value at FAAH is “# (# is < 25%)”.
On to `O=C(OC(C(F)(F)F)C(F)(F)F)N1CCC2(CCCN2Cc2ccc(Cl)c(OCCF)c2)CC1` [Example 28, 1,1,1,3,3,3-Hexafluoropropan-2-yl 1-(4-chloro-3-(2-fluoroethoxy)benzyl)-1,8-diazaspiro[4.5]decane-8-carboxylate], for which the “ABHD6 % Inh 5 mg/kg (mouse)” value at ABHD6 is recorded as “# (# is < 25%)”. Besides, at MAGL, the “MAGL % Inh 5 mg/kg (mouse)” value is recorded as “### (### is ≥ 75%)”. Moreover, the “FAAH % Inh 5 mg/kg (mouse)” value at FAAH is recorded as “# (# is < 25%)”.
Regarding `O=C(OC(C(F)(F)F)C(F)(F)F)N1CCC2(CCCN2Cc2ccc(Cl)cc2OCCF)CC1` [Example 30, 1,1,1,3,3,3-Hexafluoropropan-2-yl 1-(4-chloro-2-(2-fluoroethoxy)benzyl)-1,8-diazaspiro[4.5]decane-8-carboxylate], the “ABHD6 % Inh 5 mg/kg (mouse)” value on ABHD6 is given as “# (# is < 25%)”. For the same compound, the “MAGL % Inh 5 mg/kg (mouse)” value on MAGL is reported as “### (### is ≥ 75%)”. At FAAH, the “FAAH % Inh 5 mg/kg (mouse)” value was “# (# is < 25%)”.
For `CCOc1cc(CN2CCCC23CCN(C(=O)OC(C(F)(F)F)C(F)(F)F)CC3)ccc1Cl` [Example 32, 1,1,1,3,3,3-Hexafluoropropan-2-yl 1-(4-chloro-3-ethoxybenzyl)-1,8-diazaspiro[4.5]decane-8-carboxylate], the “ABHD6 % Inh 5 mg/kg (mouse)” value at ABHD6 was “# (# is < 25%)”. Moreover, the “MAGL % Inh 5 mg/kg (mouse)” value at MAGL is recorded as “### (### is ≥ 75%)”. Besides, the “FAAH % Inh 5 mg/kg (mouse)” value at FAAH is reported as “# (# is < 25%)”.
Take `O=C(OC(C(F)(F)F)C(F)(F)F)N1CCC2(CCCN2Cc2cc(Cl)cc(N3CCCC3)c2)CC1` [Example 34, 1,1,1,3,3,3-Hexafluoropropan-2-yl 1-(3-chloro-5-(pyrrolidin-1-yl)benzyl)-1,8-diazaspiro[4.5]decane-8-carboxylate]: the “ABHD6 % Inh 5 mg/kg (mouse)” value at ABHD6 was “# (# is < 25%)”. Further, the “MAGL % Inh 5 mg/kg (mouse)” value on MAGL is “### (### is ≥ 75%)”. Further, the “FAAH % Inh 5 mg/kg (mouse)” value on FAAH was “# (# is < 25%)”.
With `O=C(OC(C(F)(F)F)C(F)(F)F)N1CCC2(CCCN2Cc2cc(N3CCOCC3)cc(C(F)(F)F)c2)CC1` [Example 35, 1,1,1,3,3,3-Hexafluoropropan-2-yl 1-(3-morpholino-5-(trifluoromethyl)benzyl)-1,8-diazaspiro[4.5]decane-8-carboxylate], the “ABHD6 % Inh 5 mg/kg (mouse)” value at ABHD6 was “# (# is < 25%)”. For the same compound, at MAGL, the “MAGL % Inh 5 mg/kg (mouse)” value is given as “### (### is ≥ 75%)”. The “FAAH % Inh 5 mg/kg (mouse)” value on FAAH is reported as “# (# is < 25%)”.
As to `O=C(OC(C(F)(F)F)C(F)(F)F)N1CCC2(CCCN2Cc2cc(N3CCCC3)cc(C(F)(F)F)c2)CC1` [Example 36, 1,1,1,3,3,3-Hexafluoropropan-2-yl 1-(3-(pyrrolidin-1-yl)-5-(trifluoromethyl)benzyl)-1,8-diazaspiro[4.5]decane-8-carboxylate], on ABHD6, the “ABHD6 % Inh 5 mg/kg (mouse)” value is listed as “# (# is < 25%)”. Moreover, the “MAGL % Inh 5 mg/kg (mouse)” value at MAGL is recorded as “### (### is ≥ 75%)”. The “FAAH % Inh 5 mg/kg (mouse)” value at FAAH was “# (# is < 25%)”.
Take `O=C(OC(C(F)(F)F)C(F)(F)F)N1CCC2(CCCN2Cc2cc(OC(F)(F)F)cc(N3CCOCC3)c2)CC1` [Example 37, 1,1,1,3,3,3-Hexafluoropropan-2-yl 1-(3-morpholino-5-(trifluoromethoxy)benzyl)-1,8-diazaspiro[4.5]decane-8-carboxylate]: the “ABHD6 % Inh 5 mg/kg (mouse)” value at ABHD6 is “# (# is < 25%)”. Also, at MAGL, the “MAGL % Inh 5 mg/kg (mouse)” value was “### (### is ≥ 75%)”. Further, the “FAAH % Inh 5 mg/kg (mouse)” value at FAAH is on record as “# (# is < 25%)”.
For the compound `O=C(OC(C(F)(F)F)C(F)(F)F)N1CCC2(CCCN2Cc2ccc(Cl)cc2N2CCC2)CC1` [Example 107, 1,1,1,3,3,3-Hexafluoropropan-2-yl 1-(2-(azetidin-1-yl)-4-chlorobenzyl)-1,8-diazaspiro[4.5]decane-8-carboxylate], on ABHD6, the “ABHD6 % Inh 5 mg/kg (mouse)” value is reported as “# (# is < 25%)”. Further, at MAGL, the “MAGL % Inh 5 mg/kg (mouse)” value is “### (### is ≥ 75%)”.
In the case of `O=C(O)c1cc(CN2CCCC23CCN(C(=O)OC(C(F)(F)F)C(F)(F)F)CC3)ccc1C(F)(F)F` [Example 179, 5-((8-((1,1,1,3,3,3-Hexafluoropropan-2-yloxy)carbonyl)-1,8-diazaspiro[4.5]decan-1-yl)methyl)-2-(trifluoromethyl)benzoic acid], the “ABHD6 % Inh 5 mg/kg (mouse)” value on ABHD6 was “# (# is < 25%)”. In addition, at MAGL, the “MAGL % Inh 5 mg/kg (mouse)” value is reported as “### (### is ≥ 75%)”.
